From publication PMC11502502 (Nature cancer, 2024)
Where “and” joins values, the source holds several entries; their conditions need not be identical. Equal values may be shown once. Read-outs that look alike come from different tables or passages of the source.

Key:
A-427 = test: CellTiter-Glo cell viability, A-427; type: cell-based; settings: Homo sapiens, A-427, 72 h
DMS114 = test: CellTiter-Glo cell viability, DMS114; type: cell-based; settings: Homo sapiens, DMS-114, 72 h
HCC-1187 = test: CellTiter-Glo cell viability, HCC-1187; type: cell-based; settings: Homo sapiens, HCC1187, 72 h
NCI-H82 = test: CellTiter-Glo cell viability, NCI-H82; type: cell-based; settings: Homo sapiens, NCI-H82, 72 h
MOLP-8 = test: CellTiter-Glo cell viability, MOLP-8; type: cell-based; settings: Homo sapiens, MOLP-8, 72 h
SU-DHL-5 = test: CellTiter-Glo cell viability, SU-DHL-5; type: cell-based; settings: Homo sapiens, SU-DHL-5, 72 h
JJN-3 = test: CellTiter-Glo cell viability, JJN-3; type: cell-based; settings: Homo sapiens, JJN-3, 72 h
HCC-2157 = test: CellTiter-Glo cell viability, HCC-2157; type: cell-based; settings: Homo sapiens, HCC2157, 72 h
HMC1–8 = test: CellTiter-Glo cell viability, HMC1–8; type: cell-based; settings: Homo sapiens, 72 h
RPMI 8226 = test: CellTiter-Glo cell viability, RPMI 8226; type: cell-based; settings: Homo sapiens, RPMI-8226, 72 h
SNU-16 = test: CellTiter-Glo cell viability, SNU-16; type: cell-based; settings: Homo sapiens, SNU-16, 72 h
PA-1 = test: CellTiter-Glo cell viability, PA-1; type: cell-based; settings: Homo sapiens, PA-1, 72 h
KMS-12-PE = test: CellTiter-Glo cell viability, KMS-12-PE; type: cell-based; settings: Homo sapiens, 72 h
A-431 = test: CellTiter-Glo cell viability, A-431; type: cell-based; settings: Homo sapiens, A-431, 72 h
SNU398 = test: CellTiter-Glo cell viability, SNU398; type: cell-based; settings: Homo sapiens, SNU-398, 72 h
OPM-2 = test: CellTiter-Glo cell viability, OPM-2; type: cell-based; settings: Homo sapiens, OPM-2, 72 h
[1] = Protein-binding assay with equilibrium dialysis in cell culture medium; type: in vitro ADME; settings: bovine, cell culture medium with 10% fetal calf serum
SU-DHL-10 = test: CellTiter-Glo cell viability, SU-DHL-10; type: cell-based; settings: Homo sapiens, SU-DHL10, 72 h
KMS-12-BM = test: CellTiter-Glo cell viability, KMS-12-BM; type: cell-based; settings: Homo sapiens, 72 h
AMO-1 = test: CellTiter-Glo cell viability, AMO-1; type: cell-based; settings: Homo sapiens, AMO1, 72 h
SNU398 (HCC) xenografts = test: SNU398 liver cancer xenograft efficacy; type: in vivo; settings: SNU-398 (HCC) tumor bearing mice, Regorafinib 30 mg/kg qd po, one value per animal
[2] = system: hiPS cell-derived cardiomyocytes; test: hiPS cell-derived cardiomyocytes: extracellular LDH; type: cell-based, human; settings: 1 μM, 72 h
[3] = system: hiPS cell-derived cardiomyocytes; test: hiPS cell-derived cardiomyocytes: extracellular troponin I (AlphaLISA); type: cell-based, human
[4] = system: hiPS cell-derived cardiomyocytes; test: hiPS cell-derived cardiomyocytes: DAPI-stained number of nuclei; type: cell-based, human
[5] = system: hiPS cell-derived cardiomyocytes; test: hiPS cell-derived cardiomyocytes: activation of caspases 3 and 7; type: cell-based, human; settings: 1 μM, 72 h
[6] = system: hiPS cell-derived cardiomyocytes; test: hiPS cell-derived cardiomyocytes: cell viability (ATP levels, cell titer glow)
[7] = read-out: Anti-proliferative IC50
[8] = read-out: Antiproliferative IC50u

## CO[C@H]1/C=C/C[C@H](C)[C@@H](C)S(=O)(=O)NC(=O)c2ccc3c(c2)N(C[C@@H]2CC[C@H]21)C[C@@]1(CCCc2cc(Cl)ccc21)CO3 [AMG176]
A-427; [7]
  IC50: 563 nM
A-427; [8]
  IC50: 5.8 nM
DMS114; [7]
  IC50: 282 nM
DMS114; [8]
  IC50: 2.9 nM
HCC-1187; [7]
  IC50: 330 nM
HCC-1187; [8]
  IC50: 3.4 nM
NCI-H82; [7]
  IC50: 476 nM
NCI-H82; [8]
  IC50: 4.9 nM
MOLP-8; [7]
  IC50: 223 nM
MOLP-8; [8]
  IC50: 2.3 nM
SU-DHL-5; [7]
  IC50: 117 nM
SU-DHL-5; [8]
  IC50: 1.2 nM
JJN-3; [7]
  IC50: 553 nM
JJN-3; [8]
  IC50: 5.7 nM
HCC-2157; [7]
  IC50: 262 nM
HCC-2157; [8]
  IC50: 2.7 nM
HMC1–8; [7]
  IC50: 583 nM
HMC1–8; [8]
  IC50: 6 nM
RPMI 8226; [7]
  IC50: 291 nM
RPMI 8226; [8]
  IC50: 3 nM
SNU-16; [7]
  IC50: 583 nM
SNU-16; [8]
  IC50: 6 nM
PA-1; [7]
  IC50: 631 nM
PA-1; [8]
  IC50: 6.5 nM
KMS-12-PE; [7]
  IC50: 1160 nM
KMS-12-PE; [8]
  IC50: 12 nM
A-431; [7]
  IC50: 641 nM
A-431; [8]
  IC50: 6.6 nM
SNU398; [7]
  IC50: 495 nM
SNU398; [8]
  IC50: 5.1 nM
OPM-2; [7]
  IC50: 117 nM
OPM-2; [8]
  IC50: 1.2 nM
[1]
  fraction unbound: 0.01
SU-DHL-10; [7]
  IC50: 87 nM
SU-DHL-10; [8]
  IC50: 0.9 nM
KMS-12-BM; [7]
  IC50: 184 nM
KMS-12-BM; [8]
  IC50: 1.9 nM
AMO-1; [7]
  IC50: 126 nM
AMO-1; [8]
  IC50: 1.3 nM

## Cc1c2c(nn1C)CSCc1cc(n(C)n1)CSc1cc(c3ccccc3c1)OCCCc1c(C(=O)O)n(C)c3c-2c(Cl)ccc13 [AZD5991]
A-427; [7]
  IC50: 52 nM
A-427; [8]
  IC50: 1.1 nM
DMS114; [7]
  IC50: 71 nM
DMS114; [8]
  IC50: 1.5 nM
HCC-1187; [7]
  IC50: 52 nM
HCC-1187; [8]
  IC50: 1.1 nM
NCI-H82; [7]
  IC50: 162 nM
NCI-H82; [8]
  IC50: 3.4 nM
MOLP-8; [7]
  IC50: 38 nM
MOLP-8; [8]
  IC50: 0.8 nM
SU-DHL-5; [7]
  IC50: 14 nM
SU-DHL-5; [8]
  IC50: 0.3 nM
JJN-3; [7]
  IC50: 71 nM
JJN-3; [8]
  IC50: 1.5 nM
HCC-2157; [7]
  IC50: 95 nM
HCC-2157; [8]
  IC50: 2 nM
HMC1–8; [7]
  IC50: 329 nM
HMC1–8; [8]
  IC50: 6.9 nM
RPMI 8226; [7]
  IC50: 62 nM
RPMI 8226; [8]
  IC50: 1.3 nM
SNU-16; [7]
  IC50: 267 nM
SNU-16; [8]
  IC50: 5.6 nM
PA-1; [7]
  IC50: 105 nM
PA-1; [8]
  IC50: 2.2 nM
KMS-12-PE; [7]
  IC50: 210 nM
KMS-12-PE; [8]
  IC50: 4.4 nM
A-431; [7]
  IC50: 219 nM
A-431; [8]
  IC50: 4.6 nM
SNU398; [7]
  IC50: 52 nM
SNU398; [8]
  IC50: 1.1 nM
OPM-2; [7]
  IC50: 33 nM
OPM-2; [8]
  IC50: 0.7 nM
[1]
  fraction unbound: 0.021
KMS-12-BM; [7]
  IC50: 33 nM
KMS-12-BM; [8]
  IC50: 0.7 nM
AMO-1; [7]
  IC50: 57 nM
AMO-1; [8]
  IC50: 1.2 nM

## CNC(=O)c1cc(Oc2ccc(NC(=O)Nc3ccc(Cl)c(C(F)(F)F)c3)c(F)c2)ccn1 [Regorafinib]
SNU398 (HCC) xenografts; day 1 post treatment start
  anti-tumor efficacy, individual measurements: 63.45 and 60.8 and 64.88 and 117.14 and 74.08 and 111.9 and 95.85
SNU398 (HCC) xenografts; day 3 post treatment start
  anti-tumor efficacy, individual measurements: 72 and 76.25 and 72.91 and 127.45 and 81.33 and 119.22 and 106.01
SNU398 (HCC) xenografts; day 7 post treatment start
  anti-tumor efficacy, individual measurements: 83.42 and 75.99 and 78.47 and 145.78 and 87.63 and 117.37
SNU398 (HCC) xenografts; day 8 post treatment start
  anti-tumor efficacy, individual measurements: 100.66 and 81.04 and 87.14 and 150.75 and 99.27 and 129.84
SNU398 (HCC) xenografts; day 10 post treatment start
  anti-tumor efficacy, individual measurements: 89.75 and 86.89 and 87.88 and 152.45 and 93.82 and 132.88
SNU398 (HCC) xenografts; day 13 post treatment start
  anti-tumor efficacy, individual measurements: 96.32 and 85.08 and 98.92 and 145.11 and 103.54 and 167.23

## COc1cccc2c1C(=O)c1c(O)c3c(c(O)c1C2=O)C[C@@](O)(C(=O)CO)C[C@@H]3O[C@H]1C[C@H](N)[C@H](O)[C@H](C)O1 [doxorubicin]
[2]
  LDH release: increased LDH release
[3]; Doxorubicin - wash, 48h
  Extracellular troponin I: 5.76 and 7.195 and 6.893
[3]; Doxorubicin - wash, 72h
  Extracellular troponin I: 12.7295 and 11.4567 and 13.7321
[3]; Doxorubicin, 3h
  Extracellular troponin I: 0.7061 and 0.6741 and 0.6927
[3]; Doxorubicin, 6h
  Extracellular troponin I: 2.491 and 1.893 and 3.419
[3]; Doxorubicin, 48h
  Extracellular troponin I: 9.842 and 16.5962 and 13.2372
[3]; Doxorubicin, 72h
  Extracellular troponin I: 30.5761 and 27.6931 and 29.1909
[4]; 1 μM, 72 h
  Nuclear counts: decreased nuclear counts
[4]; Doxorubicin - wash, 3h
  DAPI stained number of nuclei: 0.4105 and 0.3857 and 0.4592
[4]; Doxorubicin - wash, 6h
  DAPI stained number of nuclei: 0.9721 and 0.9984 and 0.8453
[4]; Doxorubicin - wash, 24h
  DAPI stained number of nuclei: 0.5586 and 0.4572 and 0.5102
[4]; Doxorubicin - wash, 48h
  DAPI stained number of nuclei: 0.8181 and 0.8435 and 0.8812
[4]; Doxorubicin - wash, 72h
  DAPI stained number of nuclei: 0.2447 and 0.2247 and 0.2518
[4]; Doxorubicin, 3h
  DAPI stained number of nuclei: 0.3508 and 0.3671 and 0.4582
[4]; Doxorubicin, 6h
  DAPI stained number of nuclei: 0.9886 and 0.9511 and 0.985
[4]; Doxorubicin, 24h
  DAPI stained number of nuclei: 0.3141 and 0.2601 and 0.2627
[4]; Doxorubicin, 48h
  DAPI stained number of nuclei: 0.2344 and 0.4107 and 0.4046
[5]
  Caspase 3 activation: time-dependent activation of caspase 3
[6]; 1 μM, 72 h
  ATP levels: reduced ATP levels
[6]; Doxorubicin - wash, 3h
  Cell viability via cell titer glow: 0.9604 and 0.941 and 0.9405
[6]; Doxorubicin - wash, 6h
  Cell viability via cell titer glow: 0.9905 and 0.9749 and 0.9586
[6]; Doxorubicin - wash, 24h
  Cell viability via cell titer glow: 0.9393 and 0.938 and 0.976
[6]; Doxorubicin - wash, 48h
  Cell viability via cell titer glow: 0.6883 and 0.7253 and 0.7219
[6]; Doxorubicin - wash, 72h
  Cell viability via cell titer glow: 0.5187 and 0.5467 and 0.5116
[6]; Doxorubicin, 3h
  Cell viability via cell titer glow: 0.9456 and 0.9453 and 0.963
[6]; Doxorubicin, 6h
  Cell viability via cell titer glow: 0.9853 and 1.049 and 1.001
[6]; Doxorubicin, 24h
  Cell viability via cell titer glow: 0.9003 and 0.8578 and 0.8897
[6]; Doxorubicin, 48h
  Cell viability via cell titer glow: 0.5823 and 0.6777 and 0.6323
[6]; Doxorubicin, 72h
  Cell viability via cell titer glow: 0.4355 and 0.3955 and 0.4606
